Measured values published in ChEMBL document CHEMBL5329204, “Design, synthesis and biological evaluation of EGFR kinase inhibitors that spans the orthosteric and allosteric sites” (Bioorg Med Chem, 2023).
pIC50: −log10 of the molar value.

Experiments:
[1] = Inhibition of EGFR L858R/T790M/C797S triple mutant in mouse BaF3 cells assessed as cell growth inhibition measured after 72 hrs by CellTiter-Glo assay; format: cell-based; details: BaF3, 72 h
NCI-H1975 [2] = test: Anticancer activity against human NCI-H1975 cells assessed as cell growth inhibition measured after 72 hrs by MTT assay; format: functional, cell-based; details: NCI-H1975, 72 h
[3] = Inhibition of EGFR Del19/T790M/C797S triple mutant in mouse BaF3 cells assessed as cell growth inhibition measured after 72 hrs by CellTiter-Glo assay; format: cell-based; details: BaF3, 72 h
A549 = test: Anticancer activity against human A549 cells assessed as cell growth inhibition measured after 72 hrs by MTT assay; format: functional, cell-based; details: A549, 72 h
[4] = Inhibition of EGFR L858R/T790M double mutant in mouse BaF3 cells assessed as cell growth inhibition measured after 72 hrs by CellTiter-Glo assay; format: cell-based; details: BaF3, 72 h
NCI-H1975 [5] = test: Potency index, ratio of gefitinib IC50 to test compound IC50 for anticancer activity against human NCI-H1975 cells assessed as cell growth inhibition measured after 72 hrs by MTT assay; format: functional

| Structure (SMILES) | pIC50 (NCI-H1975 [2]) | pIC50 (A549) | pIC50 [1] | pIC50 [3] | pIC50 [4] | Ratio IC50 (NCI-H1975 [5]) |
| --- | --- | --- | --- | --- | --- | --- |
| COCCOc1cc2ncnc(Nc3ccc(NC(=O)C(c4ccccc4)N4Cc5ccccc5C4=O)cc3)c2cc1OCCOC (stereo not drawn) | 5.73 | < 4.70 | < 4.70 | < 4.70 | 5.57 | – |
| COc1cc2ncnc(NCc3cccc(NC(=O)C(c4ccccc4)N4Cc5ccccc5C4=O)c3)c2cc1OCCCN1CCOCC1 (stereo not drawn) | 5.06 | – | 5.05 | – | – | – |
| CC(C)(O)CC(=O)NCCn1ccc2ncnc(Nc3ccc(NC(=O)C(c4ccccc4)N4Cc5ccccc5C4=O)cc3)c21 (stereo not drawn) | < 4.70 | < 4.70 | < 4.70 | < 4.70 | < 4.70 | – |
| COc1cc2ncnc(NNC(=O)c3ccc(NC(=O)C(c4ccccc4)N4Cc5ccccc5C4=O)cc3)c2cc1OCCCN1CCOCC1 (stereo not drawn) | < 4.70 | – | < 4.70 | – | – | – |
| COc1cc2ncnc(Nc3ccc(NC(=O)C(c4ccccc4)N4Cc5ccccc5C4=O)cc3)c2cc1OCCCN1CCOCC1 (stereo not drawn) | 5.77 | < 4.70 | 5.26 | 5.09 | 5.84 | 6 |
| COc1cc2ncnc(NNc3ccc(NC(=O)C(c4ccccc4)N4Cc5ccccc5C4=O)cc3)c2cc1OCCCN1CCOCC1 (stereo not drawn) | 5.29 | – | 5.11 | – | – | – |
| COc1cc2ncnc(N(C)c3ccc(NC(=O)C(c4ccccc4)N4Cc5ccccc5C4=O)cc3)c2cc1OCCCN1CCOCC1 (stereo not drawn) | 5.20 | – | 5.07 | – | – | – |
| COc1cc2ncnc(Nc3ccc(C(=O)NNC(=O)C(c4ccccc4)N4Cc5ccccc5C4=O)cc3)c2cc1OCCCN1CCOCC1 (stereo not drawn) | < 4.70 | – | < 4.70 | – | – | – |
| C=CC(=O)Nc1cc(Nc2nccc(-c3cn(C)c4ccccc34)n2)c(OC)cc1N(C)CCN(C)C [OSIMERTINIB] | – | – | – | 6.12 | – | – |

Second part, led by results:

| pIC50 (NCI-H1975 [2]) | pIC50 (A549) | Structure (SMILES) | pIC50 [1] | pIC50 [3] | pIC50 [4] | Ratio IC50 (NCI-H1975 [5]) |
| --- | --- | --- | --- | --- | --- | --- |
| < 5.00 | – | O=C(Nc1nccs1)C(c1ccccc1)N1Cc2ccccc2C1=O (stereo not drawn) | < 5.00 | < 5.00 | – | – |
| 5.05 | – | COc1cc2ncnc(Nc3ccc(NC(=O)C(c4ccccc4)N4Cc5ccccc5C4=O)cc3F)c2cc1OCCCN1CCOCC1 (stereo not drawn) | 5.21 | – | – | – |
| 5.43 | – | COc1cc2ncnc(Nc3ccc(NC(=O)C(c4ccccc4)N4Cc5ccccc5C4=O)c(F)c3)c2cc1OCCCN1CCOCC1 (stereo not drawn) | 5.23 | – | – | – |
| < 4.70 | < 4.70 | CNC(=O)CN1CCC(Oc2cc3c(Nc4ccc(NC(=O)C(c5ccccc5)N5Cc6ccccc6C5=O)cc4)ncnc3cc2OC)CC1 (stereo not drawn) | < 4.70 | < 4.70 | 5.88 | – |
| 4.84 | – | COc1cc2ncnc(Nc3ccc(CNC(=O)C(c4ccccc4)N4Cc5ccccc5C4=O)cc3)c2cc1OCCCN1CCOCC1 (stereo not drawn) | < 4.70 | – | – | – |
| < 4.70 | – | COc1cc2ncnc(NNC(=O)c3cccc(NC(=O)C(c4ccccc4)N4Cc5ccccc5C4=O)c3)c2cc1OCCCN1CCOCC1 (stereo not drawn) | < 4.70 | – | – | – |
| 4.96 | – | COc1cc2ncnc(NCc3ccc(NC(=O)C(c4ccccc4)N4Cc5ccccc5C4=O)cc3)c2cc1OCCCN1CCOCC1 (stereo not drawn) | 5.44 | 5.46 | – | – |
| 5.03 | – | COc1cc2ncnc(Nc3cccc(NC(=O)C(c4ccccc4)N4Cc5ccccc5C4=O)c3)c2cc1OCCCN1CCOCC1 (stereo not drawn) | 5.04 | – | – | – |
